Data as given in patent US10820591B2, “Substituted sulfonyl amides for controlling animal pests” (Bayer Aktiengesellschaft, priority 2016, dated 2020).

Experiments:
Type in all cases: in vivo
Meloidogyne incognita = Meloidogyne incognita test (sand, lettuce, gall formation); details: Meloidogyne incognita, 336 h, 20 ppm, after 14 days; read-out: nematicidal efficacy (formation of galls)
How it was run: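 Gall counts on lettuce roots were scored after 14 days in sand inoculated with root-knot nematode eggs/larvae plus compound diluted in water. Values run from 0% (galls as in untreated plants) to 100% (gall-free).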

Tetranychus urticae = Tetranychus urticae spray test, OP-resistant; details: foliar, 144 h, bean leaf discs, after 6 days, read-out: efficacy
Experimental: Tetranychus urticae—Spray Test, OP-Resistant
To produce a suitable active compound preparation, 1 part by weight of active compound is dissolved with the specified parts by weight of solvent and made up to the desired concentration with water containing an emulsifier concentration of 1000 ppm. To produce further test concentrations, the formulation is diluted with emulsifier-containing water.
Discs of bean leaves (Phaseolus vulgaris) infested with all stages of the greenhouse red spider mite (Tetranychus urticae) are sprayed with an active compound preparation of the desired concentration.
After 6 days, the efficacy in % is determined. 100% means that all the spider mites have been killed; 0% means that no spider mites have been killed.

Myzus persicae [1] = experiment: Myzus persicae spray test (Chinese cabbage leaf discs); details: foliar, 144 h, 500 g/ha, after 6 days, read-out: efficacy
Experimental: Myzus persicae—Spray Test [table] To produce a suitable active compound preparation, 1 part by weight of active compound is dissolved with the specified parts by weight of solvent and made up to the desired concentration with water containing an emulsifier concentration of 1000 ppm. To produce further test concentrations, the formulation is diluted with emulsifier-containing water. Discs of Chinese cabbage leaves (Brassica pekinensis) infested by all stages of the green peach aphid (Myzus persicae) are sprayed with an active compound preparation of the desired concentration. After 6 days, the efficacy in % is determined. 100% means that all the aphids have been killed; 0% means that no aphids have been killed.

Myzus persicae [2] = experiment: Myzus persicae oral test; details: 120 h, 20 ppm, after 5 days, read-out: efficacy
Experimental: Myzus persicae—Oral Test [table] To produce a suitable active compound preparation, 1 part by weight of active compound is dissolved with the stated parts by weight of solvent and made up to the desired concentration with water. 50 μl of the active compound preparation are transferred into microtitre plates and made up to a final volume of 200 μl with 150 μl of IPL41 insect medium (33%+15% sugar). Subsequently, the plates are sealed with parafilm, which a mixed population of green peach aphids (Myzus persicae) within a second microtitre plate is able to puncture and imbibe the solution through it. After 5 days, the efficacy in % is determined. 100% means that all the aphids have been killed; 0% means that no aphids have been killed.

Compound | pest or weed control at 20 ppm (Meloidogyne incognita) [%] | pest or weed control at 500 g/ha (Tetranychus urticae) [%] | pest or weed control at 500 g/ha (Myzus persicae [1]) [%] | pest or weed control at 20 ppm (Myzus persicae [2]) [%]
O=C(NS(=O)(=O)Cc1ccccc1)c1ncn(CCC(F)(F)F)c1Cl [I-028] | 100 | 90 |  | 
CC(CC(F)(F)F)n1cnc(C(=O)NS(=O)(=O)c2ccc(Cl)cc2)c1Cl (stereo not drawn) [I-073] | 100 | 90 |  | 
Cc1cccc(CS(=O)(=O)NC(=O)c2ncn(CCC(F)(F)F)c2Cl)c1 [I-083] | 90 | 90 |  | 
O=C(NS(=O)(=O)Cc1ccccc1Cl)c1ncn(CCC(F)(F)F)c1Cl [I-085] | 90 | 70 | 70 | 
Cn1cc(C(=O)NS(=O)(=O)c2ccccc2Cl)nc1Cc1ccc(Cl)cc1 [I-121] | 70 | 90 |  | 
CC(C)S(=O)(=O)NC(=O)c1cn(C)c(Cc2ccc(Cl)cc2)n1 [I-122] | 90 | 100 | 90 | 
O=C(NS(=O)(=O)c1ccc(Cl)cc1)c1cn(Cc2cccc(Cl)c2)cn1 [I-160] | 70 | 70 |  | 
Cc1nc(C(=O)NS(=O)(=O)c2ccccc2Cl)cn1Cc1ccc(Cl)cc1 [I-170] | 100 | 90 |  | 90
Cc1nc(C(=O)NS(=O)(=O)c2ccccc2)cn1Cc1ccccc1Cl [I-171] | 100 | 90 | 70 | 
O=C(NS(=O)(=O)c1ccccc1)c1cn(-c2cccc(Cl)c2)cn1 [I-172] | 100 | 100 |  | 
O=C(NS(=O)(=O)c1ccccc1)c1cn(-c2cccc(C(F)(F)F)c2)cn1 [I-173] | 100 | 90 |  | 
O=C(NS(=O)(=O)c1ccccc1Cl)c1cn(-c2ccc(C(F)(F)F)cc2Cl)cn1 [I-197] | 100 | 70 |  | 
Cc1nc(C(=O)NS(=O)(=O)c2ccccc2)cn1-c1ccccc1F [I-255] | 100 | 70 |  | 
Cc1nc(C(=O)NS(=O)(=O)c2ccccc2Cl)cn1-c1ccccc1Cl [I-269] | 90 |  | 70 | 70
Cc1nc(C(=O)NS(=O)(=O)c2c(Cl)cccc2Cl)cn1-c1cc(Cl)cc(Cl)c1 [I-317] | 100 |  | 90 | 90
Cc1nc(C(=O)NS(=O)(=O)c2cc(Cl)ccc2Cl)cn1-c1cc(F)cc(Cl)c1 [I-330] | 100 | 70 |  | 
COc1ccc(Cl)c(S(=O)(=O)NC(=O)c2cn(C)c(Cc3ccccc3)n2)c1 [I-373] | 70 | 90 |  | 
CCSc1cccc(Cl)c1S(=O)(=O)NC(=O)c1cn(-c2cc(Cl)cc(Cl)c2)cn1 [I-391] | 100 | 70 |  | 
CC(C)Nc1cccc(F)c1S(=O)(=O)NC(=O)c1cn(-c2cc(Cl)cc(Cl)c2)cn1 [I-392] | 100 |  | 90 | 100
COc1ccc(Cl)c(S(=O)(=O)NC(=O)c2ncn(-c3ccc(Cl)cc3)c2C(C)C)c1 [I-483] | 70 | 80 |  | 
CC(C)S(=O)(=O)NC(=O)c1nc(Cl)n(CCC(F)(F)F)c1Cl [I-492] |  | 90 |  | 
